This note sets out measurements from patent publication US10875875B2, “Propionic acid derivatives and methods of use thereof” (Aviara Pharmaceuticals, Inc., priority 2017, dated 2020).

This assay addresses α4β1 (Homo sapiens, UniProt P05556+P13612). The assay is described as follows: α4β1 integrin inhibition, IC50. Type of assay: binding.

Like-named read-outs stand apart in the source and are kept apart here.

Sequence of α4β1 (P13612 34-1032): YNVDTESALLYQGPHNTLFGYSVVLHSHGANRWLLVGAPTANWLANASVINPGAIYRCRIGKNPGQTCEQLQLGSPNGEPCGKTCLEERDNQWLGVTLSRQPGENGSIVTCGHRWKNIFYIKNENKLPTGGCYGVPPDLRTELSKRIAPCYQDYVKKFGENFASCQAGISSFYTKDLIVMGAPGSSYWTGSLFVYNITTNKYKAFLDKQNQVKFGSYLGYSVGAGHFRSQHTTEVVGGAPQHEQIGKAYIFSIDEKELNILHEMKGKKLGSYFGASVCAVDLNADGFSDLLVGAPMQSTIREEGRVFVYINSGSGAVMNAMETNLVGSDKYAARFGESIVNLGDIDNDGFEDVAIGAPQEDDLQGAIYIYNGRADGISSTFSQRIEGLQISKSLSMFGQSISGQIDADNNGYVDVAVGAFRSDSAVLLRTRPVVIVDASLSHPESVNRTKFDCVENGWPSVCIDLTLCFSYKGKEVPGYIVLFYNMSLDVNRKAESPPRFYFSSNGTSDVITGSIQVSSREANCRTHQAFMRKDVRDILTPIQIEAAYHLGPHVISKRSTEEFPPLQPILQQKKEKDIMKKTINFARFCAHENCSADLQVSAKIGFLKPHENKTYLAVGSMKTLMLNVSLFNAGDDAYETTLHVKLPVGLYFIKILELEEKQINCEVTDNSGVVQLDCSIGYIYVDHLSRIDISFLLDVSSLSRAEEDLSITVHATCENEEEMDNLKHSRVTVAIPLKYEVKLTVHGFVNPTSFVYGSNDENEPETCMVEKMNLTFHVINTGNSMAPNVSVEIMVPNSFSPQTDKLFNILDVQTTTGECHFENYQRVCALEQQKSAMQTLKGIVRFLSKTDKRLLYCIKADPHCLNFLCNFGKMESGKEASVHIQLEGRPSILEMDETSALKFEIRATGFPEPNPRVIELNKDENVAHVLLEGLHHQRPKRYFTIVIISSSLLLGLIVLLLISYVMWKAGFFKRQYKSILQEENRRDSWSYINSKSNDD
Sequence of α4β1 (P05556 21-798): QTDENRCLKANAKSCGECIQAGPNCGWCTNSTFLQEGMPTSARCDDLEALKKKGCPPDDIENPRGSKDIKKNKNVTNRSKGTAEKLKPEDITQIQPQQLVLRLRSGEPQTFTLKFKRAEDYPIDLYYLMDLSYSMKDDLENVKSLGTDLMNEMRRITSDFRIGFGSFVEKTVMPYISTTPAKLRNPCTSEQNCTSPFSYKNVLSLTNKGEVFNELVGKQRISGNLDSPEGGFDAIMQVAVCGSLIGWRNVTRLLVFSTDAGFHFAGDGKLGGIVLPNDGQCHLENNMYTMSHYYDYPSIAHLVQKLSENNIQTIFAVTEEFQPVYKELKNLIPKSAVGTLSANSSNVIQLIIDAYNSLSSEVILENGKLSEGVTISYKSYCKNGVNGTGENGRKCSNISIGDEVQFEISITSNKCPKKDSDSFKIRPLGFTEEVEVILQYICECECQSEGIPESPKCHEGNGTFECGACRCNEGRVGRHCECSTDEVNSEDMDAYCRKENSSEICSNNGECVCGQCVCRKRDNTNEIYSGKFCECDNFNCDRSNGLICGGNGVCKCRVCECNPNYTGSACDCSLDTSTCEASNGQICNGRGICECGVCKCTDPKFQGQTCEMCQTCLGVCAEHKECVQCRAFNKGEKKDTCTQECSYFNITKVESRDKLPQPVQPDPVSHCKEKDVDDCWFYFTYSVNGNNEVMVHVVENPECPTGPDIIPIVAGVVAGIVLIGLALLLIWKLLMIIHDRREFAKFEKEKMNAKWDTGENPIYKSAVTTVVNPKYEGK

One may read the IC50 as the point on the concentration scale where inhibition reaches its midpoint. On to `Cc1cn(C)c(=O)c(NC(=O)N[C@@H](CC(=O)O)c2cccc(-c3ccccc3)c2)c1O` [1-437, sodium (S)-3-(biphenyl-3-yl)-3-(3-(1,5-dimethyl-4-oxido-2-oxo-1,2-dihydropyridin-3-yl)ureido)propanoate], for which, under “integrin not named at the place, read-out: IC50”, the IC50 was under 20 nM. In the case of `CCn1cc(C)c(O)c(NC(=O)N[C@@H](CC(=O)O)c2cccc(-c3ccccc3)c2)c1=O` [1-438, sodium (S)-3-(biphenyl-3-yl)-3-(3-(1-ethyl-5-methyl-4-oxido-2-oxo-1,2-dihydropyridin-3-yl)ureido)propanoate], the IC50 (read-out: α4β1 IC50) was under 200 nM.

For the compound `CCn1cc(C)c(O)c(NC(=O)NC(CC(=O)O)c2cccc(-n3cccc(-c4ccccc4)c3=O)c2)c1=O` (centres unmarked) [1-439, sodium 3-(3-(1-ethyl-5-methyl-4-oxido-2-oxo-1,2-dihydropyridin-3-yl)ureido)-3-(3-(2-oxo-3-phenylpyridin-1(2H)-yl)phenyl)propanoate], the IC50 (read-out: α4β1 IC50) is over 200 nM. Take `Cc1ccccc1-c1cccc([C@H](CC(=O)O)NC(=O)Nc2c(O)c(C)cn(C)c2=O)c1` [1-440, sodium (S)-3-(3-(1,5-dimethyl-4-oxido-2-oxo-1,2-dihydropyridin-3-yl)ureido)-3-(2′-methylbiphenyl-3-yl)propanoate]: the IC50 (read-out: α4β1 IC50) is under 200 nM. Still for that read-out and setting: to `Cc1cn(C)c(=O)c(NC(=O)N[C@@H](CC(=O)O)c2cccc(-c3ccccc3F)c2)c1O` [1-441, sodium (S)-3-(3-(1,5-dimethyl-4-oxido-2-oxo-1,2-dihydropyridin-3-yl)ureido)-3-(2′-fluorobiphenyl-3-yl)propanoate] belongs under 20 nM. Same read-out and setting: then `Cc1cn(C)c(=O)c(NC(=O)N[C@@H](CC(=O)O)c2ccc(F)c(-c3ccccc3)c2)c1O` [1-442, sodium (S)-3-(3-(1,5-dimethyl-4-oxido-2-oxo-1,2-dihydropyridin-3-yl)ureido)-3-(6-fluorobiphenyl-3-yl)propanoate], with under 20 nM. `CCn1cc(C)c(O)c(NC(=O)N[C@@H](CC(=O)O)c2cccc(-c3ccccc3C)c2)c1=O` [1-443, sodium (S)-3-(3-(1-ethyl-5-methyl-4-oxido-2-oxo-1,2-dihydropyridin-3-yl)ureido)-3-(2′-methylbiphenyl-3-yl)propanoate]: the IC50 (read-out: α4β1 IC50) was under 200 nM. The same measure, in the same setting: to `CCn1cc(C)c(O)c(NC(=O)N[C@@H](CC(=O)O)c2cccc(-c3ccc(C)cc3)c2)c1=O` [1-444, sodium (S)-3-(3-(1-ethyl-5-methyl-4-oxido-2-oxo-1,2-dihydropyridin-3-yl)ureido)-3-(4′-methylbiphenyl-3-yl)propanoate] belongs under 200 nM. The same measure, in the same setting: to `Cc1cn(C)c(=O)c(NC(=O)NC(CC(=O)O)c2cccc(-n3cccc3)c2)c1O` (centres unmarked) [1-445, sodium 3-(3-(1H-pyrrol-1-yl)phenyl)-3-(3-(1,5-dimethyl-4-oxido-2-oxo-1,2-dihydropyridin-3-yl)ureido)propanoate] belongs under 200 nM; to `Cc1cn(C)c(=O)c(NC(=O)N[C@@H](CC(=O)O)c2cccc(-c3ccc(F)cc3F)c2)c1O` [1-446, sodium (S)-3-(2′,4′-difluorobiphenyl-3-yl)-3-(3-(1,5-dimethyl-4-oxido-2-oxo-1,2-dihydropyridin-3-yl)ureido)propanoate], under 20 nM. As for `Cc1cn(C)c(=O)c(NC(=O)N[C@@H](CC(=O)O)c2cccc(-c3cc(F)ccc3F)c2)c1O` [1-447, sodium (S)-3-(2′,5′-difluorobiphenyl-3-yl)-3-(3-(1,5-dimethyl-4-oxido-2-oxo-1,2-di hydropyridin-3-yl)ureido)propanoate], the IC50 (read-out: α4β1 IC50) was under 20 nM. `Cc1ccc([C@H](CC(=O)O)NC(=O)Nc2c(O)c(C)cn(C)c2=O)cc1-c1ccccc1` [1-448, sodium (S)-3-(3-(1,5-dimethyl-4-oxido-2-oxo-1,2-dihydropyridin-3-yl)ureido)-3-(6-methylbiphenyl-3-yl)propanoate]: under “read-out: α4β1 IC50”, the IC50 is under 200 nM. Still for that read-out and setting: then `COc1ccc([C@H](CC(=O)O)NC(=O)Nc2c(O)c(C)cn(C)c2=O)cc1-c1ccccc1` [1-449, sodium (S)-3-(3-(1,5-dimethyl-4-oxido-2-oxo-1,2-dihydropyridin-3-yl)ureido)-3-(6-methoxybiphenyl-3-yl)propanoate], with under 200 nM. As to `Cc1ccc(-c2cccc([C@H](CC(=O)O)NC(=O)Nc3c(O)c(C)cn(C)c3=O)c2)cc1` [1-450, sodium (S)-3-(3-(1,5-dimethyl-4-oxido-2-oxo-1,2-dihydropyridin-3-yl)ureido)-3-(4′-methylbiphenyl-3-yl)propanoate], for the setting “read-out: α4β1 IC50”, the IC50 is under 200 nM. The same measure, in the same setting: then `Cc1cccc(-c2cccc([C@H](CC(=O)O)NC(=O)Nc3c(O)c(C)cn(C)c3=O)c2)c1` [1-451, sodium (S)-3-(3-(1,5-dimethyl-4-oxido-2-oxo-1,2-dihydropyridin-3-yl)ureido)-3-(3′-methylbiphenyl-3-yl)propanoate], with under 200 nM. On the same count and under the same terms, then `Cc1cn(C)c(=O)c(NC(=O)N[C@@H](CC(=O)O)c2cccc(-c3cccnc3)c2)c1O` [1-452, sodium (S)-3-(3-(1,5-dimethyl-4-oxido-2-oxo-1,2-dihydropyridin-3-yl)ureido)-3-(3-(pyridin-3-yl)phenyl)propanoate], with under 200 nM; and `Cc1cn(C)c(=O)c(NC(=O)N[C@@H](CC(=O)O)c2cccc(-c3cc(F)cc(F)c3)c2)c1O` [1-453, sodium (S)-3-(3′,5′-difluorobiphenyl-3-yl)-3-(3-(1,5-dimethyl-4-oxido-2-oxo-1,2-di hydropyridin-3-yl)ureido)propanoate], with under 20 nM; and `Cc1cc(C)cc(-c2cccc([C@H](CC(=O)O)NC(=O)Nc3c(O)c(C)cn(C)c3=O)c2)c1` [1-454, sodium (S)-3-(3-(1,5-dimethyl-4-oxido-2-oxo-1,2-dihydropyridin-3-yl)ureido)-3-(3′,5′-dimethylbiphenyl-3-yl)propanoate], with under 200 nM.

For the compound `COc1ccccc1-c1cccc([C@H](CC(=O)O)NC(=O)Nc2c(O)c(C)cn(C)c2=O)c1` [1-456, sodium (S)-3-(3-(1,5-dimethyl-4-oxido-2-oxo-1,2-dihydropyridin-3-yl)ureido)-3-(2′-methoxybiphenyl-3-yl)propanoate], the IC50 (read-out: α4β1 IC50) was under 200 nM. On the same count and under the same terms, then `Cc1cn(C)c(=O)c(NC(=O)N[C@@H](CC(=O)O)c2cccc(-c3ccc(F)c(F)c3)c2)c1O` [1-458, sodium (S)-3-(3′,4′-difluorobiphenyl-3-yl)-3-(3-(1,5-dimethyl-4-oxido-2-oxo-1,2-di hydropyridin-3-yl)ureido)propanoate], with under 20 nM. The same measure, in the same setting: to `Cc1ccc(C)c(-c2cccc([C@H](CC(=O)O)NC(=O)Nc3c(O)c(C)cn(C)c3=O)c2)c1` [1-459, sodium (S)-3-(3-(1,5-dimethyl-4-oxido-2-oxo-1,2-dihydropyridin-3-yl)ureido)-3-(2′,5′-dimethylbiphenyl-3-yl)propanoate] belongs under 20 nM. On the same count and under the same terms, to `COc1cccc(-c2cccc([C@H](CC(=O)O)NC(=O)Nc3c(O)c(C)cn(C)c3=O)c2)c1` [1-460, sodium (S)-3-(3-(1,5-dimethyl-4-oxido-2-oxo-1,2-dihydropyridin-3-yl)ureido)-3-(3′-methoxybiphenyl-3-yl)propanoate] belongs under 200 nM; to `Cc1cccc(-c2cccc([C@H](CC(=O)O)NC(=O)Nc3c(O)c(C)cn(C)c3=O)c2)c1C` [1-462, sodium (S)-3-(3-(1,5-dimethyl-4-oxido-2-oxo-1,2-dihydropyridin-3-yl)ureido)-3-(2′,3′-dimethylbiphenyl-3-yl)propanoate], under 200 nM.

`Cc1cn(C)c(=O)c(NC(=O)NC(CC(=O)O)c2ccc(=O)n(-c3ccccc3)c2)c1O` (centres unmarked) [1-463, sodium 3-(3-(1,5-dimethyl-4-oxido-2-oxo-1,2-dihydropyridin-3-yl)ureido)-3-(6-oxo-1-phenyl-1,6-dihydropyridin-3-yl)propanoate]: the IC50 (read-out: α4β1 IC50) was under 200 nM. Same read-out and setting: to `Cc1cn(C)c(=O)c(NC(=O)N[C@@H](CC(=O)O)c2cccc(-c3c(F)cccc3F)c2)c1O` [1-464, sodium (S)-3-(2′,6′-difluorobiphenyl-3-yl)-3-(3-(1,5-dimethyl-4-oxido-2-oxo-1,2-di hydropyridin-3-yl)ureido)propanoate] belongs under 20 nM; to `Cc1cn(C)c(=O)c(NC(=O)N[C@@H](CC(=O)O)c2cccc(-c3cccc(F)c3)c2)c1O` [1-465, sodium (S)-3-(3-(1,5-dimethyl-4-oxido-2-oxo-1,2-dihydropyridin-3-yl)ureido)-3-(3′-fluorobiphenyl-3-yl)propanoate], under 20 nM. For `Cc1cn(C)c(=O)c(NC(=O)N[C@@H](CC(=O)O)c2cccc(-c3ccc(F)cc3)c2)c1O` [1-466, sodium (S)-3-(3-(1,5-dimethyl-4-oxido-2-oxo-1,2-dihydropyridin-3-yl)ureido)-3-(4′-fluorobiphenyl-3-yl)propanoate], the IC50 (read-out: α4β1 IC50) is under 20 nM.

As to `Cc1cn(C)c(=O)c(NC(=O)N[C@@H](CC(=O)O)c2cccc(-c3ccccc3OC(F)(F)F)c2)c1O` [1-467, sodium (S)-3-(3-(1,5-dimethyl-4-oxido-2-oxo-1,2-dihydropyridin-3-yl)ureido)-3-(2′-(trifluoromethoxy)biphenyl-3-yl)propanoate], the IC50 (read-out: α4β1 IC50) was under 200 nM. On the same count and under the same terms, then `COc1ccc(-c2cccc([C@H](CC(=O)O)NC(=O)Nc3c(O)c(C)cn(C)c3=O)c2)c(OC)c1` [1-468, sodium (S)-3-(2′,4′-dimethoxybiphenyl-3-yl)-3-(3-(1,5-dimethyl-4-oxido-2-oxo-1,2-dihydropyridin-3-yl)ureido)propanoate], with under 200 nM; and `COc1ccc(-c2cccc([C@H](CC(=O)O)NC(=O)Nc3c(O)c(C)cn(C)c3=O)c2)cc1OC` [1-469, sodium (S)-3-(3′,4′-dimethoxybiphenyl-3-yl)-3-(3-(1,5-dimethyl-4-oxido-2-oxo-1,2-dihydropyridin-3-yl)ureido)propanoate], with under 20 nM. On the same count and under the same terms, to `Cc1cn(C)c(=O)c(NC(=O)NC(CC(=O)O)c2cccc(-c3ccc(Cl)cc3)c2)c1O` (centres unmarked) [1-471, sodium 3-(4′-chlorobiphenyl-3-yl)-3-(3-(1,5-dimethyl-4-oxido-2-oxo-1,2-dihydropyridin-3-yl)ureido)propanoate] belongs under 200 nM; to `Cc1cn(C)c(=O)c(NC(=O)NC(CC(=O)O)c2cccc(-c3cccc(Cl)c3)c2)c1O` (centres unmarked) [1-472, sodium 3-(3′-chlorobiphenyl-3-yl)-3-(3-(1,5-dimethyl-4-oxido-2-oxo-1,2-dihydropyridin-3-yl)ureido)propanoate], under 200 nM.
